Holding throughout (format): cell-based
For test [1], the system named is HEK293. As to the kind of experiment: Selectivity for Alpha-1B N-type calcium channel over alpha-1G T-type calcium channel expressed in HEK293 cells at 10 uM. The following applies: Homo sapiens.
Test [2] deals with Voltage-dependent N-type calcium channel subunit alpha-1B (Homo sapiens) (UniProt Q00975). Description: Inhibition of N-type calcium channel […] alpha-1B subunit expressed in HEK293 cells assessed as calcium current at 10 uM by patch-clamp assay. In general terms: The patch-clamp technique gives a direct electrical read-out from membranes.
Test [3] concerns the target Voltage-dependent T-type calcium channel subunit alpha-1G (Homo sapiens) (UniProt O43497). Description: Inhibition of T-type calcium channel Cav3.1 alpha-1G subunit expressed in HEK293 cells assessed as calcium current at 10 uM by patch-clamp assay.
The target is the same in test [4]. Description: Inhibition of T-type calcium channel Cav3.1 alpha-1G subunit expressed in HEK293 cells assessed as calcium current at 10 uM by high throughput screening.
In test [5] the test system is HEK293. As to the kind of experiment: Selectivity for alpha-1B N-type calcium channel over alpha1G T-type calcium channel expressed in HEK293 cells. The conditions noted are these: Homo sapiens.

Structures are written as SMILES. Where only a bound is given, the exact number is not on record here.

What is called inhibition is how much of the control response was suppressed.

Voltage-dependent N-type calcium channel subunit alpha-1B (Homo sapiens), sequence (Q00975 whole entry, looked up): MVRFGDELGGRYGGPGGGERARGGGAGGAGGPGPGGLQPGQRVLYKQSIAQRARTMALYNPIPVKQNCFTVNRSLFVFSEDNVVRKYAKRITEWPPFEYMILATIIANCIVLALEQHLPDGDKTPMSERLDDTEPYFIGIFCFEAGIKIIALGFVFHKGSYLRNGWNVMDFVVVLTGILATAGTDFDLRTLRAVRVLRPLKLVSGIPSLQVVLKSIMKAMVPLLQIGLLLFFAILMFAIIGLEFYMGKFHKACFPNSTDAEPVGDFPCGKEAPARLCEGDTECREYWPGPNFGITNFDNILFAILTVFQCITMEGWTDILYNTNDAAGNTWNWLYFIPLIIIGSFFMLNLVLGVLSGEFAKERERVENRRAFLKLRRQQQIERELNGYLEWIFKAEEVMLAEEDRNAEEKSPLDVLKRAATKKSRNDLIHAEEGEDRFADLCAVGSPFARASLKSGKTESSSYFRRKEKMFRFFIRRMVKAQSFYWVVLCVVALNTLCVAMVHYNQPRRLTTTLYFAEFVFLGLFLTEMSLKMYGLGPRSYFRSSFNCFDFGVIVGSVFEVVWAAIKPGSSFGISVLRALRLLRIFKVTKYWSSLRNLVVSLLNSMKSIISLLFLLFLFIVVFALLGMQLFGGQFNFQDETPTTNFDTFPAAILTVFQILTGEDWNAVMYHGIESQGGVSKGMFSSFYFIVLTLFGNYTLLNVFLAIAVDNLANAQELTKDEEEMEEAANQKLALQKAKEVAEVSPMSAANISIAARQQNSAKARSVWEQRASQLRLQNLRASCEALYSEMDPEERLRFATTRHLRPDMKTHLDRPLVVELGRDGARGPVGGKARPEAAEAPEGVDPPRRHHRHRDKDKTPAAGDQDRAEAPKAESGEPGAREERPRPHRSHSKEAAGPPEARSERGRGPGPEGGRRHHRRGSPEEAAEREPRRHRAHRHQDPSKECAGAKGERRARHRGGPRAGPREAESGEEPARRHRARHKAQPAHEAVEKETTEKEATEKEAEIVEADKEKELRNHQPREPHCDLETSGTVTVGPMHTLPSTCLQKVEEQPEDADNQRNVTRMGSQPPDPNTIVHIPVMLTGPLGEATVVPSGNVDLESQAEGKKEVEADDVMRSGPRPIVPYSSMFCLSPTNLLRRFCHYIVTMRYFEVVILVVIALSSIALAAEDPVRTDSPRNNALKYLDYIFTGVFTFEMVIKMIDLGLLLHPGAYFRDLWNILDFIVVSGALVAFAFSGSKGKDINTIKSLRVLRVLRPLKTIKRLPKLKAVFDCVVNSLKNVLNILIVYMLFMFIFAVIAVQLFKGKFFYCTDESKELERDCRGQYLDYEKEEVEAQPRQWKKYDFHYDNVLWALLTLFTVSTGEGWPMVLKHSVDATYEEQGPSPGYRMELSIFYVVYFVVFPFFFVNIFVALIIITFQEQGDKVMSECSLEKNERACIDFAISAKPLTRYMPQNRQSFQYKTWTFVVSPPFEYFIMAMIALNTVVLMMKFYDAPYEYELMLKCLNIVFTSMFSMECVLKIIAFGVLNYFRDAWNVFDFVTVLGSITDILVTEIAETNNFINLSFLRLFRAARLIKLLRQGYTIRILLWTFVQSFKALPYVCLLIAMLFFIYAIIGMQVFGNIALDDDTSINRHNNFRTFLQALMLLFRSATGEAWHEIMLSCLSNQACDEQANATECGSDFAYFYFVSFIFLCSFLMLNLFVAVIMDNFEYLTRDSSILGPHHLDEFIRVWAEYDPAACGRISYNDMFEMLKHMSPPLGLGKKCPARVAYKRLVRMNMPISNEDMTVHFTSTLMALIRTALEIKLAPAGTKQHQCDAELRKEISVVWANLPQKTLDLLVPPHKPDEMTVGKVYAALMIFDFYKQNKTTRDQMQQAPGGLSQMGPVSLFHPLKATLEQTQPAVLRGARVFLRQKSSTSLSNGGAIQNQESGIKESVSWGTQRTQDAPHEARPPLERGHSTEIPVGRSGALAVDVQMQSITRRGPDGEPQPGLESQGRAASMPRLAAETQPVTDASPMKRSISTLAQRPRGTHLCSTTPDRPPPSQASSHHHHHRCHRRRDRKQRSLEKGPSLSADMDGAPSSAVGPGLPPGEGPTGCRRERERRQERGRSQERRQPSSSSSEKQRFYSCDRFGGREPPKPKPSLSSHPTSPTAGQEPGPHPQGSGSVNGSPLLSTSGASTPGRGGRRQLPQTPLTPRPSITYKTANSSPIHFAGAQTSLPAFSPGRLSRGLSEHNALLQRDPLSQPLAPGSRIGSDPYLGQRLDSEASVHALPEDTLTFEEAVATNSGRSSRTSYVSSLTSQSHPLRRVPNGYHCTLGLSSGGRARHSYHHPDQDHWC
Voltage-dependent T-type calcium channel subunit alpha-1G (Homo sapiens), sequence (O43497 whole entry): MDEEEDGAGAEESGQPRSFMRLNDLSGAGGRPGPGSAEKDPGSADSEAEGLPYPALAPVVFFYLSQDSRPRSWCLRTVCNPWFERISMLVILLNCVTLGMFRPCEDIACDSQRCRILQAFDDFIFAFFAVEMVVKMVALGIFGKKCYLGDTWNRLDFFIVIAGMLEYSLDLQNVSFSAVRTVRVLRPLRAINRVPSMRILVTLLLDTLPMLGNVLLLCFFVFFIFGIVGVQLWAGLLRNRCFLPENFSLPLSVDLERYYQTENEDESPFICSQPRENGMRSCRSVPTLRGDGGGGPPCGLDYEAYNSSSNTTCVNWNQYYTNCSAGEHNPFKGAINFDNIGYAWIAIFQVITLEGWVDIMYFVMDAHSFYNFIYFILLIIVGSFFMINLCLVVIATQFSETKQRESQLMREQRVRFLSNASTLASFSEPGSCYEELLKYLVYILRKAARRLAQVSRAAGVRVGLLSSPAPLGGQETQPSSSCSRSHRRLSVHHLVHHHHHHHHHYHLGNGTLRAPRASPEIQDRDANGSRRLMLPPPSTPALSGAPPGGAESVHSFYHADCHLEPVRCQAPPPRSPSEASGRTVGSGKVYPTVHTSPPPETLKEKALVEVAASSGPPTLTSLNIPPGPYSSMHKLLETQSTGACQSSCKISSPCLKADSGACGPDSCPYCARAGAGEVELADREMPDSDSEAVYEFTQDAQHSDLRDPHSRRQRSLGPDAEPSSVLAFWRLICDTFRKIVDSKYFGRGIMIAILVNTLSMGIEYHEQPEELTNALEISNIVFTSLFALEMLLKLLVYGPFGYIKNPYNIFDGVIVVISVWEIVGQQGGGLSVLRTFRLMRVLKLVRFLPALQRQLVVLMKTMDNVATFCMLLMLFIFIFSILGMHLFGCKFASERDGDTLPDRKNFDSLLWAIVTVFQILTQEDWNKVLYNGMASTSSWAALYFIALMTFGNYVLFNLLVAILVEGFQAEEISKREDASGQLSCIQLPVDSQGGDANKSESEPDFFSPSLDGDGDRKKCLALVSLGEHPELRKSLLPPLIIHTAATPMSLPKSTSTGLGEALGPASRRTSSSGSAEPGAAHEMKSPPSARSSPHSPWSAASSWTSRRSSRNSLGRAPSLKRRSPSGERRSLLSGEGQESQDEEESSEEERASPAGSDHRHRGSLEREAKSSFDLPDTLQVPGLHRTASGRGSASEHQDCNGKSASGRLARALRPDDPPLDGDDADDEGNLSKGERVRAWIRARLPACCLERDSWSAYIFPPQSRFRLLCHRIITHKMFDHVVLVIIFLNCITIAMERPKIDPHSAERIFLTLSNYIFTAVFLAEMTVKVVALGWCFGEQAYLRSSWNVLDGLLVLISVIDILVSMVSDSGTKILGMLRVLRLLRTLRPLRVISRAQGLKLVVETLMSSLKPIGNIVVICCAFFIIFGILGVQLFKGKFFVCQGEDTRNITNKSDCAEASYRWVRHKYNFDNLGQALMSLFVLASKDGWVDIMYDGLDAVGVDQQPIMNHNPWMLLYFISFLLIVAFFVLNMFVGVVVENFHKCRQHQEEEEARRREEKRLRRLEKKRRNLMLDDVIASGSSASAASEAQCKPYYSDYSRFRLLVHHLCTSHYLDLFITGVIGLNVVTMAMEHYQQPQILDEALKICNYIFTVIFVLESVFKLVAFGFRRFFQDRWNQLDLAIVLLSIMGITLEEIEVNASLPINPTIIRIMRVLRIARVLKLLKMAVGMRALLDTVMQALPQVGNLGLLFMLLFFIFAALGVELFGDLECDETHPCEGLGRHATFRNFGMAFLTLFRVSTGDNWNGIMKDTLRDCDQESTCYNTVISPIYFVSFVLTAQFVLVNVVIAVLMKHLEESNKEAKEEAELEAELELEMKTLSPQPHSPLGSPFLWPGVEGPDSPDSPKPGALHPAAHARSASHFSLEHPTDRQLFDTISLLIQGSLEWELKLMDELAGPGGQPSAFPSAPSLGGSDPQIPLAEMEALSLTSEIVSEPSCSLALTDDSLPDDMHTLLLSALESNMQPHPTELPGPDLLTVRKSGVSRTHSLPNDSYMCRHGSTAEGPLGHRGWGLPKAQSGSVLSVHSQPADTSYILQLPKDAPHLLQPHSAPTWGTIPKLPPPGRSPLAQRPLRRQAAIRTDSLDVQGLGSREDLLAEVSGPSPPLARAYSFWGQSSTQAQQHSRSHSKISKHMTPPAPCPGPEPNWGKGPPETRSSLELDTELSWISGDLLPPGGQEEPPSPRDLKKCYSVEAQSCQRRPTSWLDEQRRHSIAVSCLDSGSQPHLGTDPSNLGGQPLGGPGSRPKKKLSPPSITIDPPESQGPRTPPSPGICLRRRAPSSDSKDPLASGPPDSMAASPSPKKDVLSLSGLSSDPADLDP

As for `COC(=O)CC1c2ccccc2N=C(NCCCCCN)N1c1ccc(-c2ccccc2)cc1` (stereo not drawn), the Selectivity ratio with HEK293 [1] was over 100.

`O=C(CC1c2ccccc2N=C(N2CCCCC2)N1c1ccccc1)NCc1ccccc1` (stereo not drawn): in the test with HEK293 [1], the Selectivity ratio was 3.2. Moreover, the inhibition in test [2] is 28.1%.

On to `CN(C)CCCCCN(C)C1=Nc2ccccc2C(CC(=O)NCc2ccccc2)N1c1ccc(-c2ccccc2)cc1` (stereo not drawn), for which the Selectivity ratio with HEK293 [1] worked out at 1.4. Also, the inhibition came to 98% in test [3], 42.9% in test [4] and 70.6% in test [2]. The Ratio IC50 with HEK293 [5] was 120.

Take `COC(=O)CC1c2ccccc2N=C(N(C)CCCCCN(C)C)N1c1ccc(-c2ccccc2)cc1` (stereo not drawn): the Selectivity ratio in the test with HEK293 [1] is 3.7. Moreover, the inhibition in test [3] came out at 90.1%; in test [4] it was 57.9%; in test [2], 24.4%.

Take `COCC(=O)O[C@]1(CCN(C)CCCc2nc3ccccc3[nH]2)CCc2cc(F)ccc2[C@@H]1C(C)C`: the inhibition in test [4] is 77.6%.

The record behind these values is ChEMBL document CHEMBL1137510, “Discovery of potent T-type calcium channel blocker” (Bioorg Med Chem Lett, 2007).
